Values after ≈ are worked out from the molar mass of the structure shown. Values joined by “and” are separate entries in the source; they are usually repeats but may differ in a detail not shown here. Equal values may be shown once. Read-outs that look alike come from different tables or passages of the source.
What was measured:
[1] = test system: Mycobacterium tuberculosis
Enterococcus faecalis = experiment: Antibiotic testing (MIC), Enterococcus faecalis; format: cell-based; settings: growth inhibition ≥90%, read-out: minimum inhibitory concentration, Enterococcus faecalis
[2] = test system: Mycobacterium tuberculosis; experiment: microbe, parasite or virus in culture; settings: read-out: MIC, MABA
J774 = experiment: Cytotoxicity (MTS), J774 cells; format: cell-based, murine; settings: Mus musculus, 72 hours exposure
Bacillus subtilis = experiment: Antibiotic testing (MIC), Bacillus subtilis; format: cell-based; settings: growth inhibition ≥90%, read-out: minimum inhibitory concentration, Bacillus subtilis
Streptococcus pyogenes = experiment: Antibiotic testing (MIC), Streptococcus pyogenes; format: cell-based; settings: growth inhibition ≥90%, read-out: minimum inhibitory concentration, Streptococcus pyogenes
B. anthracis = experiment: microbe, parasite or virus in culture; format: cell-based; settings: Bacillus anthracis, read-out: minimum inhibitory concentration, B. anthracis
K. pneumoniae (10031) = experiment: Antibiotic testing (MIC), gram negative K. pneumoniae; format: cell-based
Method: (§1) None of this collection of compounds were active against Gram-negative bacteria
(§2) Additionally, BPL 76 and derivatives were tested against a panel of gram negative bacteria including K. pneumonia, P. aeruginosa and E. coli (Table 12).

[3] = test system: Staphylococcus aureus (13709); experiment: Antibiotic testing (MIC), S. aureus 13709; format: cell-based; settings: growth inhibition ≥90% relative to drug-free controls, read-out: minimum inhibitory concentration, Staphylococcus aureus (13709)
S. aureus CAIRD116 = experiment: Antibiotic testing, methicillin-resistant S. aureus CAIRD116; format: cell-based; settings: methicillin-resistant strain; for MIC: Staphylococcus aureus, CAIRD116
Description: (§3) Both the methyl ester and the diacetate derivatives of BPL 76 slightly less but still very strong activity against the same four MRSA strains (Table 11). The activities of compounds BPL 76 and BPL 81 were compared to several known antibiotics against three methicillin-resistant strains of S. aureus [FIG. 6, comparative data provided by Hartford Hospital, Center for Anti-Infective Research and Development (CAIRD)].

Vero cell = experiment: Cytotoxicity (MTS), Vero cells; format: cell-based, monkey; settings: Primates, 72 hours exposure
C. albicans = experiment: Antibiotic testing (MIC), C. albicans; format: cell-based; settings: Candida albicans; growth inhibition ≥90%; read-out: minimum inhibitory concentration, C. albicans
Candida glabrata = experiment: Antibiotic testing (MIC), Candida glabrata; format: cell-based; settings: Nakaseomyces glabratus; growth inhibition ≥90%; read-out: minimum inhibitory concentration, Candida glabrata
S. aureus (NE277) = experiment: Antibiotic testing, methicillin-resistant S. aureus NE277; format: cell-based; settings: for MIC: Staphylococcus aureus, read-out: antibiotic testing data (MIC), S. aureus (NE277); for antibiotic testing data (MIC), S. aureus (NE277): methicillin-resistant strain
Description: as §3

S. aureus CAIRD148 = experiment: Antibiotic testing, methicillin-resistant S. aureus CAIRD148; format: cell-based; settings: methicillin-resistant strain; for MIC: Staphylococcus aureus, CAIRD148
Description: as §3

E. coli (25922) = experiment: Antibiotic testing (MIC), gram negative E. coli; format: cell-based
Method: as §1, §2

HepG2 = experiment: Cytotoxicity (MTS), HepG2 cells; format: cell-based; settings: Homo sapiens, 72 hours exposure
[4] = test system: non-replicating persistence Mycobacterium tuberculosis (NRP-TB); experiment: Low oxygen recovery assay (LORA), non-replicating persistence Mtb; format: cell-based; settings: for MIC: Mycobacterium tuberculosis, non-replicating persistence, hypoxic conditions, read-out: MIC, LORA
S. aureus CAIRD142 = experiment: Antibiotic testing, methicillin-resistant S. aureus CAIRD142; format: cell-based; settings: methicillin-resistant strain; for MIC: Staphylococcus aureus, CAIRD142
Description: as §3

P. aeruginosa = experiment: Antibiotic testing (MIC), gram negative P. aeruginosa; format: cell-based
Method: as §1, §2

GFP synthesis = experiment: Cell-free translation assay with GFP reporter; format: biochemical; settings: 50 μM, 37° C., readings for 2 hr
Method: Further assessment of the effect of BPL76 on protein translation was done using a cell-free translation assay. The plasmid pY71-sfGFP^55 (5 ng) was translated in the PUREexpress in vitro protein synthesis system (New England Biolabs). The final concentrations of erythromycin, josamycin and tylosin in the translation reactions were 50 μM. The reactions were incubated at 37° C. and fluorescence readings (excitation: 488 nm, emission, 520 nm) were taken every 20 min for 2 hr.

MMP-3 = target: T1, MMP-3 (Homo sapiens, UniProt P08254); experiment: MMP-3 enzyme inhibition assay; format: biochemical
T1 construct: purchased BioMol
Method: The two fungi were also co-cultured under controlled conditions. P. fuscum was grown in pure culture in potato dextrose broth (10×400 mL). After 24 h, an agar cube (8 mm^3) impregnated with P. camembertii/clavigerum mycelium was added to each flask and the resulting co-culture was shaken for 6 more days (200 rpm, room temperature). At time of harvest, methanol (50 mL/flask) was added, the mycelia were removed by gravity filtration and the broth was extracted with chloroform (3×2 L). The chloroform was removed in vacuo to yield 663 mg of crude extract. The crude extract was verified to be active in the MMP-3, caspase-1 and caspase-3 enzyme inhibition assays. Enzyme inhibitory activity was determined using specific BioMol enzyme inhibition assay kits for drug discovery as described in Stierle, A; Stierle, D. The Berkeleylactones, Antibiotic Macrolides from Fungal Coculture. J. Nat. Prod. 80, 4, 1150-1160.

[5] = Klebsiella pneumoniae; read-out: MIC, K. pneumoniae (10031)
[6] = Escherichia coli; read-out: MIC, E. coli (25922)
[7] = Pseudomonas aeruginosa; read-out: MIC, P. aeruginosa

T1 sequence (P08254 100-477): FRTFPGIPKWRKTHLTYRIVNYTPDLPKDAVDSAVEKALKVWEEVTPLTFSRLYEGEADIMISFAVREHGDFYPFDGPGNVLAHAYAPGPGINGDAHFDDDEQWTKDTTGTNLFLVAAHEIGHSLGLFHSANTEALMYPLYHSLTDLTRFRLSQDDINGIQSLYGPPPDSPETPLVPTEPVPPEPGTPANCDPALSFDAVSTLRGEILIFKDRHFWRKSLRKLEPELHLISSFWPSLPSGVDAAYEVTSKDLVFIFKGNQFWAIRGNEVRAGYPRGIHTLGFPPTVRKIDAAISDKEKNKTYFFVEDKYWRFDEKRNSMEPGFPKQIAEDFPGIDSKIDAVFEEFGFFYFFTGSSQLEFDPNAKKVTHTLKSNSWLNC

SMILES: COc1c(N2C[C@@H]3CCCN[C@@H]3C2)c(F)cc2c(=O)c(C(=O)O)cn(C3CC3)c12 [MOX - Moxifloxicin, Moxifloxicin, reference compound]
- MIC, MABA ([1]; normal (replicating) conditions, known antibiotics): 0.2 µM (≈ 0.0803 µg/mL)

SMILES: COC(=O)[C@H](O)CS[C@@H]1CC(=O)[C@@H](O)CCCCCCCCC[C@@H](C)OC1=O [BPL 76-Me ester, methyl (S)-2-hydroxy-3-(((3R,6S,16R)-6-hydroxy-16-methyl-2,5-dioxooxacyclohexadecan-3-yl)thio)propanoate]
- MIC (Enterococcus faecalis): 3 µg/mL (≈ 7.17 µM)
- MIC [2]: 32 µg/mL (≈ 76.5 µM)
- IC50 (J774): 38 µg/mL (≈ 90.8 µM)
- MIC (Bacillus subtilis): 3 µg/mL (≈ 7.17 µM)
- MIC (Streptococcus pyogenes): 3 µg/mL (≈ 7.17 µM)
- MIC (B. anthracis): 1 µg/mL (≈ 2.39 µM)
- MIC (K. pneumoniae (10031); [5]): 250 µM and 105 µg/mL
- MIC [3]: 1 µg/mL (≈ 2.39 µM)
- MIC (S. aureus CAIRD116): 2 µg/mL (≈ 4.78 µM)
- IC50 (Vero cell): 74 µg/mL (≈ 177 µM)
- MIC (C. albicans): 13 µg/mL (≈ 31.1 µM)
- MIC (Candida glabrata): 7 µg/mL (≈ 16.7 µM)
- MIC (S. aureus (NE277)): 2 µg/mL (≈ 4.78 µM)
- MIC (S. aureus CAIRD148): 2 µg/mL (≈ 4.78 µM)
- MIC (E. coli (25922); [6]): 125 µM and 52.3 µg/mL
- IC50 (HepG2): 55.6 µg/mL (≈ 133 µM)
- MIC [4]: 19 µg/mL (≈ 45.4 µM)
- MIC (S. aureus CAIRD142): 2 µg/mL (≈ 4.78 µM)
- MIC (P. aeruginosa; [7]): > 250 µM

SMILES: CO[C@@H]1[C@@H](O[C@@H]2O[C@H](C)[C@@H](O[C@H]3C[C@@](C)(O)[C@@H](OC(=O)CC(C)C)[C@H](C)O3)[C@H](N(C)C)[C@H]2O)[C@@H](CC=O)C[C@@H](C)[C@@H](O)/C=C/C=C/C[C@@H](C)OC(=O)C[C@H]1OC(C)=O [josamycin]
- inhibition of GFP synthesis and corresponding fluorescence (GFP synthesis): effectively inhibited

SMILES: CC[C@H]1OC(=O)[C@H](C)[C@@H](O[C@H]2C[C@@](C)(OC)[C@@H](O)[C@H](C)O2)[C@H](C)[C@@H](O[C@@H]2O[C@H](C)C[C@H](N(C)C)[C@H]2O)[C@](C)(O)C[C@@H](C)C(=O)[C@H](C)[C@@H](O)[C@]1(C)O [erythromycin]
- inhibition of GFP synthesis and corresponding fluorescence (GFP synthesis): effectively inhibited

SMILES: CC[C@H]1OC(=O)C[C@@H](O)[C@H](C)[C@@H](O[C@@H]2O[C@H](C)[C@@H](O[C@H]3C[C@@](C)(O)[C@@H](O)[C@H](C)O3)[C@H](N(C)C)[C@H]2O)[C@@H](CC=O)C[C@@H](C)C(=O)/C=C/C(C)=C/[C@@H]1CO[C@@H]1O[C@H](C)[C@@H](O)[C@@H](OC)[C@H]1OC [tylosin]
- inhibition of GFP synthesis and corresponding fluorescence (GFP synthesis): effectively inhibited

SMILES: COC(=O)[C@@H](CS[C@@H]1CC(=O)[C@@H](OC(C)=O)CCCCCCCCC[C@@H](C)OC1=O)OC(C)=O [BPL 76-diacetate, methyl (S)-2-acetoxy-3-(((3R,6S,16R)-6-acetoxy-16-methyl-2,5-dioxooxacyclohexadecan-3-yl)thio)propanoate]
- MIC (Enterococcus faecalis): 15 µg/mL (≈ 29.8 µM)
- MIC (Bacillus subtilis): 7 µg/mL (≈ 13.9 µM)
- MIC (Streptococcus pyogenes): 15 µg/mL (≈ 29.8 µM)
- MIC (B. anthracis): 4 µg/mL (≈ 7.96 µM)
- MIC (K. pneumoniae (10031); [5]): > 125 µM
- MIC [3]: 2 µg/mL (≈ 3.98 µM)
- MIC (S. aureus CAIRD116): 4 µg/mL (≈ 7.96 µM)
- MIC (C. albicans): > 125 µg/mL
- MIC (Candida glabrata): > 125 µg/mL
- MIC (S. aureus (NE277)): 4 µg/mL (≈ 7.96 µM)
- MIC (S. aureus CAIRD148): 4 µg/mL (≈ 7.96 µM)
- MIC (E. coli (25922); [6]): > 125 µM
- MIC (S. aureus CAIRD142): 7 µg/mL (≈ 13.9 µM)
- MIC (P. aeruginosa; [7]): > 125 µM

SMILES: C[C@@H]1CCCCCCCCC[C@H](OC(=O)CCC(=O)O)[C@H](O)/C=C/C(=O)O1 [BPL 84, 4-(((5R,6S,16R,E)-5-hydroxy-16-methyl-2-oxooxacyclohexadec-3-en-6-yl)oxy)-4-oxobutanoic acid]
- MIC [2]: > 100 µg/mL
- IC50 (J774): > 100 µg/mL
- MIC (Bacillus subtilis): > 90 µg/mL
- MIC (Streptococcus pyogenes): > 90 µg/mL
- MIC (B. anthracis): > 90 µg/mL
- MIC (K. pneumoniae (10031); [5]): > 250 µM
- MIC [3]: 45 µg/mL (≈ 117 µM)
- activity against replicating Mtb (in words) ([1]; MABA): not active
- MIC (S. aureus CAIRD116): > 90 µg/mL
- antibiotic testing data (MIC), S. aureus CAIRD116 (S. aureus CAIRD116): >250 µM
- IC50 (Vero cell): > 100 µg/mL
- MIC (C. albicans): > 90 µg/mL
- MIC (Candida glabrata): > 90 µg/mL
- MIC (S. aureus (NE277)): > 90 µg/mL
- antibiotic testing data (MIC), S. aureus (NE277) (S. aureus (NE277)): >250 µM
- MMP-3 inhibition (MMP-3): weaker inhibitors
- MIC (S. aureus CAIRD148): > 90 µg/mL
- antibiotic testing data (MIC), S. aureus CAIRD148 (S. aureus CAIRD148): >250 µM
- MIC (E. coli (25922); [6]): > 250 µM
- IC50 (HepG2): > 100 µg/mL
- activity against non-replicating Mtb (in words) ([4]; LORA): not active
- MIC [4]: > 100 µg/mL
- MIC (S. aureus CAIRD142): > 90 µg/mL
- antibiotic testing data (MIC), S. aureus CAIRD142 (S. aureus CAIRD142): >250 µM
- MIC (P. aeruginosa; [7]): > 250 µM

SMILES: C[C@H]1OC(=O)/C=C/[C@@H](O)[C@@H](OC(=O)CCC(=O)O)CCCCCCCC[C@@H]1O [BPL 86, 4-(((5R,6S,15 S,16R,E)-5,15-dihydroxy-16-methyl-2-oxooxacyclohexadec-3-en-6-yl)oxy)-4-oxobutanoic acid]
- MIC (Bacillus subtilis): > 50 µg/mL
- MIC (Streptococcus pyogenes): > 50 µg/mL
- MIC (B. anthracis): 24 µg/mL (≈ 59.9 µM)
- MIC (K. pneumoniae (10031); Klebsiella pneumoniae, read-out: MIC, K. pneumoniae (10031)): > 125 µM
- MIC [3]: 24 µg/mL (≈ 59.9 µM)
- MIC (S. aureus CAIRD116): 47 µg/mL (≈ 117 µM)
- antibiotic testing data (MIC), S. aureus CAIRD116 (S. aureus CAIRD116): 125 µM
- MIC (C. albicans): > 50 µg/mL
- MIC (Candida glabrata): > 50 µg/mL
- MIC (S. aureus (NE277)): 47 µg/mL (≈ 117 µM)
- antibiotic testing data (MIC), S. aureus (NE277) (S. aureus (NE277)): 125 µM
- MMP-3 inhibition (MMP-3): weaker inhibitors
- MIC (S. aureus CAIRD148): 47 µg/mL (≈ 117 µM)
- antibiotic testing data (MIC), S. aureus CAIRD148 (S. aureus CAIRD148): 125 µM
- MIC (E. coli (25922); Escherichia coli, read-out: MIC, E. coli (25922)): > 125 µM
- MIC (S. aureus CAIRD142): 47 µg/mL (≈ 117 µM)
- antibiotic testing data (MIC), S. aureus CAIRD142 (S. aureus CAIRD142): 125 µM
- MIC (P. aeruginosa; Pseudomonas aeruginosa, read-out: MIC, P. aeruginosa): > 125 µM
